{"source": "paper PMC7571063", "about": "“High-Resolution Mass Spectrometry-Based Approaches for the Detection and Quantification of Peptidase Activity in Plasma” (Molecules, 2020)", "tested_on": "proteases in pooled pig plasma", "experiment": "Multiplex substrate profiling by mass spectrometry (MSP-MS) of pig plasma with the 228-member tetradecapeptide library", "conditions": "pooled pig plasma ~50-fold diluted to 1 mg/mL protein, DPBS 1 mM DTT, room temperature, 15 and 60 min, LC-MS/MS, triplicate", "note": "Entries after “also recorded” stand apart in the source; their conditions may differ.", "description": "To quantify proteolytic activity in plasma samples obtained from healthy pigs, we used the MSP-MS assay, which is a global and unbiased substrate-based protease profiling approach. This assay uses a physicochemically diverse library of peptides as substrates for proteases present in a biological sample. Tandem mass spectrometry is used to quantify protease-derived peptide cleavage products. These substrates were designed to contain a unique dipeptide at each terminus (position 1–2 and 13–14) to profile exo-acting proteases and a central decapeptide sequence (position 3–12) consisting of all combinations of neighbor and near-neighbor amino acid pairs that are used to profile endoproteases [10].\nEqual volumes of plasma from six pigs were mixed and then diluted to a final concentration of 1 mg/mL protein in assay buffer and mixed with the synthetic peptides. This dilution of ~50-fold reduced the concentration of plasma proteins and peptides in the assay that could interfere with the quantification of the synthetic peptides. Cleavage of synthetic peptides by proteases in neat plasma was predicted to occur in minutes and therefore dilution of plasma decreases the concentration of all proteases so that activity could be monitored at two time intervals over the course of an hour-long assay. This allowed us to detect and quantify peptide cleavage products after 15 and 60 min incubations. […]", "data": [{"sequence": "FRIHGFDEAHNAWM", "values": [{"measurement": "cleavage site of the library peptide by pig plasma proteases", "value": "cleaved between His-Asn; also recorded: cleaved between Ala-Trp"}]}]}
